Patent US20210177812A1, “METHODS OF SUPPRESSING MYELOID-DERIVED SUPPRESSOR CELLS IN PATIENTS” (MediciNova, Inc., priority 2018, published 2021)
“Also recorded” adds a separate entry of the source. Like-named read-outs stand apart in the source and are kept apart here.

What was measured:
[1] = test system: mouse model of glioma GL261; test: Flow cytometry of MDSCs and T-cells in tumor, blood, spleen and bone marrow, mouse model of glioma GL261; format: in vivo; details: day 19; for monocytic MDSCs (M-MDSCs) in the tumor: ibudilast dosed 50 mg/kg i.p. daily from day 5 (AV1013 dose not given), vs vehicle
Procedure: (§1) Ibudilast was tested in vivo using the mouse model of glioma GL261. Cells were implanted on day 0 and then a 5-day engrafiment period was used to ensure that the treatment being tested was performing by inhibiting tumor growth and not engraftment. After 5 days the mice were intraperitoneally injected daily with ibudilast at 50 mg/kg in a vehicle consisting of PEG 400 and (2-hydroxypropyl)-p-cyclodextrin to enhance solubility with low toxicity or alternatively mice were treated with AV1013. At day 19 post injection, 3 mice from each group (ibudilast, AV1013 or vehicle) were sacrificed for flow cytometry analysis of MDSCs, T-cells, and NK cells in the tumor, blood, spleen, and bone marrow.

GL261 = test: In vitro treatment of co-culture for 24 h, MCP-1 (CCL2) secretion; format: cell-based, mouse; details: co-culture treated 24 h in vitro
[2] = test system: mouse model of glioma GL261; test: Kaplan Meier survival analysis, mouse model of glioma GL261; format: in vivo; details: n=10 per group; vehicle median 19 days; Log Rank p=0.016
Procedure: as §1
The median survival times for vehicle-treated mice (n=10) was 19 days whereas ibudilast-treated mice (n=10) were undetermined at this point (Log Rank p=0.016, […]) (FIG. 14).

MDSCs = test: T-cell proliferation in the presence of ibudilast-treated MDSCs from GL261/bone marrow co-culture; format: cell-based, mouse; details: CFSE-labeled CD3/28-activated splenic T-cells, 3 days with MDSCs; n=6 mice, 2 experiments, P=0.001
Procedure: (§2) MDSCs were prepared through a co-culture process illustrated in FIG. 1. Glioma cell line GL261 is cultured together with freshly isolated bone marrow for 4 days. During this 4-day process the glioma cell line initiates subsets of the naïve monocytes within the bone marrow to become both monocytic MDSCs (M-MDSCs) and granulocytic MDSCs (G-MDSCs) distinguished via flow cytometry using CD11b, Ly6C, and GR1. The GR1+ population was harvested at day 4 via magnetic bead separation. Once isolated the MDSCs were combined with freshly isolated splenic T-cells which were labeled with CFSE and activated using CD3/28 activation beads. The T-cell proliferation was then determined 3 days after being combined with MDSCs by measuring the fluorescence intensity of each CD3 T-cell after 3 days of being cultured with MDSCs (FIG. 2).

MCP-1 = test: Serum cytokine analysis at day 19 of treated GL261 mice; format: in vivo, mouse; details: day 19, 3 animals per group
Procedure: as §1

[3] = in vivo, cited from earlier work
[4] = test system: MIF/CD74 signaling pathway; test: mRNA expression of CD45+ cells isolated from vehicle- and ibudilast-treated tumors; format: in vivo, mouse; details: n=3 per group
Procedure: as §1
Further analysis was conducted on the mRNA expression of CD45+ cells isolated from vehicle- and ibudilast-treated tumors.

M-MDSCs = test: MDSC generation in co-cultures with MIF inhibitors quantified by flow cytometry; format: cell-based, mouse; details: GL261/bone marrow co-culture
Procedure: as §2

Row | Compound | monocytic MDSCs (M-MDSCs) in the tumor [1] | secretion of MCP-1 (CCL2) (GL261) | survival versus vehicle [2] | CD8 T-cells ([1]; 50 mg/kg i.p. daily, FIG. 7) | CD4 T-cells ([1]; 50 mg/kg i.p. daily, FIG. 8) | monocytic MDSCs (M-MDSCs) in the blood ([1]; blood, 50 mg/kg i.p. daily from day 5, 50 mg/kg) | monocytic MDSCs (M-MDSCs) in the marrow ([1]; bone marrow, 50 mg/kg i.p. daily from day 5, 50 mg/kg) | monocytic MDSCs (M-MDSCs) in the spleen ([1]; spleen, 50 mg/kg i.p. daily from day 5, 50 mg/kg) | immune suppressive T-regulatory cells ([1]; tumor vs blood, marrow, spleen, 50 mg/kg i.p. daily) | monocytic MDSCs (M-MDSCs) in the tumor ([1]; 50 mg/kg) | suppressive abilities of MDSCs on T-cell proliferation (MDSCs) | serum MCP-1 level (MCP-1) | CNS distribution / penetration [3] | CNS distribution / penetration ([3]; listed as Ibudilast) | CCR2 mRNA expression [4] | CD74 mRNA expression [4] | MCP-1 (CCL2) mRNA expression [4] | MIF mRNA expression [4] | myeloid genes mRNA expression [4] | M-MDSC generation (M-MDSCs)
1 | CC(N)C(=O)c1c(C(C)C)nn2ccccc12 (centres unmarked) [AV1013] | no significant suppression |  |  |  |  |  |  |  |  |  |  |  |  |  |  |  |  |  |  | 
2 | CC(C)C(=O)c1c(C(C)C)nn2ccccc12 [ibudilast, 3-isobutyryl-2-isopropylpyrazolo(1,5-a)pyridine] |  | reduced GLP261 secretion MCP-1 (CCL2) in a dose-dependent manner; also recorded: reduced GL261 secretion of MCP-1(ccl2) in a dose dependent manner | Significant survival advantages | decreased | increased | not altered; also recorded: not M-MDSCs associated with blood, spleen or bone marrow | not altered; also recorded: not M-MDSCs associated with blood, spleen or bone marrow | not altered; also recorded: not M-MDSCs associated with blood, spleen or bone marrow | reduced only in the tumors | reduced; also recorded: reduces M-MDSCs associated with tumor | effectively reduced the suppressive abilities of MDSCs | reduction | good CNS penetration | distributes well to the CNS | significantly reduced | significantly reduced | significantly reduced | not reduced | Overall reductions | ability to reduce M-MDSC generation
